Laboratory results as given in patent US20040087633A1, “Methylidene oxazolidinone compound and preparation method thereof” (Korea Institute of Science and Technology, priority 2002, published 2004).
Values after ≈ are worked out from the molar mass of the structure shown.

Legend:
Assay in all cases: Anti-microbial activity test in vitro (agar dilution MIC)
E. faecium C2252 = type: cell-based; conditions: E. faecium C2252; Agar Dilution method, Mueller Hinton Agar, 18 hours at 37° C.
Experimental: (§1) Anti-microbial activity test in vitro
(§2) Strains were cultivated for 18 hours at 37° C. in Agar Dilution method using Mueller Hinton Agar, and then plane plates inoculated with the strains by diluting them two times gradually were aligned in a row. Minimum inhibition concentration (MIC, μg/ml) for the representative compounds of the present invention, Linezolid (LZD) and vancomycin (VAN) were decided through visual observation, and the results are shown in the following tables 2 and 3.

E. faecium C6301 = type: cell-based; conditions: E. faecium C6301; Agar Dilution method, Mueller Hinton Agar, 18 hours at 37° C.
Experimental: as §1, §2

S. epidermidis C2235 = type: cell-based; conditions: S. epidermidis C2235; Agar Dilution method, Mueller Hinton Agar, 18 hours at 37° C.
Experimental: as §1, §2

S. pyogenes ATCC8668 = type: cell-based; conditions: S. pyogenes ATCC8668; Agar Dilution method, Mueller Hinton Agar, 18 hours at 37° C.
Experimental: as §1, §2

S. pyogenes C6012 = type: cell-based; conditions: S. pyogenes C6012; Agar Dilution method, Mueller Hinton Agar, 18 hours at 37° C.
Experimental: as §1, §2

E. faecalis C6291 = type: cell-based; conditions: E. faecalis C6291; Agar Dilution method, Mueller Hinton Agar, 18 hours at 37° C.
Experimental: as §1, §2

S. epidermidis ATCC12228 = type: cell-based; conditions: S. epidermidis ATCC12228; Agar Dilution method, Mueller Hinton Agar, 18 hours at 37° C.
Experimental: as §1, §2

E. faecalis C6288 = type: cell-based; conditions: E. faecalis C6288; Agar Dilution method, Mueller Hinton Agar, 18 hours at 37° C.
Experimental: as §1, §2

E. faecalis ATCC29212 = type: cell-based; conditions: E. faecalis ATCC29212; Agar Dilution method, Mueller Hinton Agar, 18 hours at 37° C.
Experimental: as §1, §2

S. aureus ATCC 29213 = type: cell-based; conditions: Agar Dilution method, Mueller Hinton Agar, 18 hours at 37° C.
Experimental: as §1, §2

S. pyogenes C6003 = type: cell-based; conditions: S. pyogenes C6003; Agar Dilution method, Mueller Hinton Agar, 18 hours at 37° C.
Experimental: as §1, §2

S. epidermidis C2230 = type: cell-based; conditions: S. epidermidis C2230; Agar Dilution method, Mueller Hinton Agar, 18 hours at 37° C.
Experimental: as §1, §2

VRE C6487 = type: cell-based, Enterococcus faecium; conditions: VRE C6487; Agar Dilution method, Mueller Hinton Agar, 18 hours at 37° C.
Experimental: as §1, §2

VRE C6488 = type: cell-based, Enterococcus faecium; conditions: VRE C6488; Agar Dilution method, Mueller Hinton Agar, 18 hours at 37° C.
Experimental: as §1, §2

CRSA C1062 = type: cell-based, Staphylococcus aureus; conditions: CRSA C1062; Agar Dilution method, Mueller Hinton Agar, 18 hours at 37° C.
Experimental: as §1, §2

MSSA C7142 = type: cell-based, Staphylococcus aureus; conditions: MSSA C7142; Agar Dilution method, Mueller Hinton Agar, 18 hours at 37° C.
Experimental: as §1, §2

MSSA C2214 = type: cell-based, Staphylococcus aureus; conditions: MSSA C2214; Agar Dilution method, Mueller Hinton Agar, 18 hours at 37° C.
Experimental: as §1, §2

MRSA C6068 = type: cell-based, Staphylococcus aureus; conditions: MRSA C6068; Agar Dilution method, Mueller Hinton Agar, 18 hours at 37° C.
Experimental: as §1, §2

CRSA C6043 = type: cell-based, Staphylococcus aureus; conditions: CRSA C6043; Agar Dilution method, Mueller Hinton Agar, 18 hours at 37° C.
Experimental: as §1, §2

MRSA C2207 = type: cell-based, Staphylococcus aureus; conditions: MRSA C2207; Agar Dilution method, Mueller Hinton Agar, 18 hours at 37° C.
Experimental: as §1, §2

MRSA C5100 = type: cell-based, Staphylococcus aureus; conditions: MRSA C5100; Agar Dilution method, Mueller Hinton Agar, 18 hours at 37° C.
Experimental: as §1, §2

SMILES	Minimum inhibition concentration (MIC) (E. faecium C2252)	Minimum inhibition concentration (MIC) (E. faecium C6301)	Minimum inhibition concentration (MIC) (S. epidermidis C2235)	Minimum inhibition concentration (MIC) (S. pyogenes ATCC8668)	Minimum inhibition concentration (MIC) (S. pyogenes C6012)	Minimum inhibition concentration (MIC) (E. faecalis C6291)	Minimum inhibition concentration (MIC) (S. epidermidis ATCC12228)	Minimum inhibition concentration (MIC) (E. faecalis C6288)	Minimum inhibition concentration (MIC) (E. faecalis ATCC29212)	Minimum inhibition concentration (MIC) (S. aureus ATCC 29213)	Minimum inhibition concentration (MIC) (S. pyogenes C6003)	Minimum inhibition concentration (MIC) (S. epidermidis C2230)	Minimum inhibition concentration (MIC) (VRE C6487)	Minimum inhibition concentration (MIC) (VRE C6488)	Minimum inhibition concentration (MIC) (CRSA C1062)	Minimum inhibition concentration (MIC) (MSSA C7142)	Minimum inhibition concentration (MIC) (MSSA C2214)	Minimum inhibition concentration (MIC) (MRSA C6068)	Minimum inhibition concentration (MIC) (CRSA C6043)	Minimum inhibition concentration (MIC) (MRSA C2207)	other results
CON=C(C)C=C1CCN(c2ccc(N3C[C@H](CNC(C)=O)OC3=O)cc2F)CC1 [Compound 21, N-[[(5S)-3-[3-fluoro-4-(4-(2-methoxyiminopropylidene)-piperidinyl)phenyl]-2-oxo-5-oxazolidinyl]methyl]acetamide]	8 µg/mL (≈ 19.1 µM)	8 µg/mL (≈ 19.1 µM)	8 µg/mL (≈ 19.1 µM)	2 µg/mL (≈ 4.78 µM)	2 µg/mL (≈ 4.78 µM)	8 µg/mL (≈ 19.1 µM)	2 µg/mL (≈ 4.78 µM)	8 µg/mL (≈ 19.1 µM)	16 µg/mL (≈ 38.2 µM)	16 µg/mL (≈ 38.2 µM)	8 µg/mL (≈ 19.1 µM)	16 µg/mL (≈ 38.2 µM)	4 µg/mL (≈ 9.56 µM)	4 µg/mL (≈ 9.56 µM)	32 µg/mL (≈ 76.5 µM)	16 µg/mL (≈ 38.2 µM)	16 µg/mL (≈ 38.2 µM)	8 µg/mL (≈ 19.1 µM)	16 µg/mL (≈ 38.2 µM)	16 µg/mL (≈ 38.2 µM)	Minimum inhibition concentration (MIC) (MRSA C5100): 8 µg/mL (≈ 19.1 µM)
CC(=O)NC[C@H]1CN(c2ccc(N3CCC(=CC=O)CC3)c(F)c2)C(=O)O1 [Compound 17, N-[[(5S)-3-[3-fluoro-4-(4-(2-oxoethylidene)piperidinyl)-phenyl]-2-oxo-5-oxazolidinyl]methyl]acetamide]	8 µg/mL (≈ 21.3 µM)	4 µg/mL (≈ 10.7 µM)	2 µg/mL (≈ 5.33 µM)	2 µg/mL (≈ 5.33 µM)	1 µg/mL (≈ 2.66 µM)	8 µg/mL (≈ 21.3 µM)	1 µg/mL (≈ 2.66 µM)	4 µg/mL (≈ 10.7 µM)	16 µg/mL (≈ 42.6 µM)	8 µg/mL (≈ 21.3 µM)	8 µg/mL (≈ 21.3 µM)	2 µg/mL (≈ 5.33 µM)	8 µg/mL (≈ 21.3 µM)	8 µg/mL (≈ 21.3 µM)	8 µg/mL (≈ 21.3 µM)	4 µg/mL (≈ 10.7 µM)	8 µg/mL (≈ 21.3 µM)	4 µg/mL (≈ 10.7 µM)	4 µg/mL (≈ 10.7 µM)	4 µg/mL (≈ 10.7 µM)	Minimum inhibition concentration (MIC) (MRSA C5100): 4 µg/mL (≈ 10.7 µM)
CON=CC=C1CCN(c2ccc(N3C[C@H](CNC(C)=O)OC3=O)cc2F)CC1 [Compound 19, N-[[(5S)-3-[3-fluoro-4-(4-(2-methoxyiminoethylidene)-piperidinyl)phenyl]-2-oxo-5-oxazolidinyl]methyl]acetamide]	4 µg/mL (≈ 9.89 µM)	4 µg/mL (≈ 9.89 µM)	2 µg/mL (≈ 4.95 µM)	1 µg/mL (≈ 2.47 µM)	1 µg/mL (≈ 2.47 µM)	4 µg/mL (≈ 9.89 µM)	1 µg/mL (≈ 2.47 µM)	2 µg/mL (≈ 4.95 µM)	4 µg/mL (≈ 9.89 µM)	8 µg/mL (≈ 19.8 µM)	2 µg/mL (≈ 4.95 µM)	4 µg/mL (≈ 9.89 µM)	4 µg/mL (≈ 9.89 µM)	4 µg/mL (≈ 9.89 µM)	4 µg/mL (≈ 9.89 µM)	4 µg/mL (≈ 9.89 µM)	8 µg/mL (≈ 19.8 µM)	4 µg/mL (≈ 9.89 µM)	4 µg/mL (≈ 9.89 µM)	4 µg/mL (≈ 9.89 µM)	Minimum inhibition concentration (MIC) (MRSA C5100): 4 µg/mL (≈ 9.89 µM)
CC(=O)NC[C@H]1CN(c2ccc(N3CCC(=CC(C)OC(=O)CCl)CC3)c(F)c2)C(=O)O1 (stereo partly drawn) [Compound 24, N-[[(5S)-3-[3-fluoro-4-(4-(2-(chloroacetoxy)propylidene)-piperidinyl)-phenyl]-2-oxo-5-oxazolidinyl]methyl]acetamide]	16 µg/mL (≈ 34.2 µM)	8 µg/mL (≈ 17.1 µM)	8 µg/mL (≈ 17.1 µM)	2 µg/mL (≈ 4.27 µM)	2 µg/mL (≈ 4.27 µM)	16 µg/mL (≈ 34.2 µM)	2 µg/mL (≈ 4.27 µM)	16 µg/mL (≈ 34.2 µM)	8 µg/mL (≈ 17.1 µM)	16 µg/mL (≈ 34.2 µM)	8 µg/mL (≈ 17.1 µM)	8 µg/mL (≈ 17.1 µM)	4 µg/mL (≈ 8.55 µM)	4 µg/mL (≈ 8.55 µM)	8 µg/mL (≈ 17.1 µM)	16 µg/mL (≈ 34.2 µM)	16 µg/mL (≈ 34.2 µM)	8 µg/mL (≈ 17.1 µM)	16 µg/mL (≈ 34.2 µM)	16 µg/mL (≈ 34.2 µM)	Minimum inhibition concentration (MIC) (MRSA C5100): 16 µg/mL (≈ 34.2 µM)
